Measured values published in patent publication US12629348B2, “Method and composition for treating osteoarthritis” (Vireo Systems, Inc., priority 2013, dated 2026).

System: cultured canine chondrocytes
Experiment: TNFα release in cultured canine chondrocytes challenged with IL1b
Assay type: cell-based
Settings: IL1b challenge; FIG. 4
Protocol: The study involved the use of cultured canine chondrocytes (i.e., cells within the joint that are activated during OA). The canine chondrocytes were subjected to an inflammatory challenge in the form of cytokine Interleukin 1 beta (“IL1b”). The canine chondrocytes were then treated with various anti-inflammatory compounds including Alpha-GEE; glucosamine; a TNFα receptor antagonist; and a NSAID (Rimadyl). Alpha-GEE was administered in concentrations ranging from 10 μM to 1000 μM. The resulting effects of the various treatments on both PGE2 release and TNFα release were examined.
A similar time dependent decrease in TNFα release was also observed in chondrocytes treated with Alpha-GEE, as shown in FIG. 4.

In the case of CC(C(=O)O)c1ccc2c(c1)[nH]c1ccc(Cl)cc12 (centres unmarked) [Rimadyl], the “effect on TNFα release in canine chondrocytes” value is reported as “significant increase”.

In the case of N[C@H]1C(O)O[C@H](CO)[C@@H](O)[C@@H]1O (some centres unmarked) [glucosamine], the “effect on TNFα release in canine chondrocytes” value is reported as “no significant effect”.
